Test results taken from the NIST ThermoML archive (doi:10.1021/je301030z).

Test: mn = molality of the nth substance listed, in mol/kg
Settings: 101 kPa, Liquid, Vibrating tube method

NCCO [2-aminoethan-1-ol] + O
mass density [kg/m3]
Settings | 293.16 K | 297.14 K | 301.14 K | 305.14 K | 309.14 K | 313.14 K | 317.14 K | 320.14 K
m1 = 2.8 | 1004.53 | 1003.31 | 1001.95 | 1000.48 | 998.89 | 997.21 | 995.42 | 994.02
m1 = 7.01 | 1013.19 | 1011.51 | 1009.75 | 1007.89 | 1005.96 | 1003.95 | 1001.85 | 1000.22
